*1 amine or outer side, *2 acyl side, *3 side chain or, on linkers, in order; H or OH if unused. Where a SMILES comes first, the peptide text is derived from it. Bridges are numbered along the chain shown (N, C = ends). Roman numbers before positions name the chains, in order. [ ]: non-standard residue; d: D form. Actinocin(9to1) = Cc1c2oc3c(C)ccc(C(=O)[*:1])c3nc-2c(C(=O)[*:2])c(N)c1=O; NMeV = CN[C@H](C(=O)O)C(C)C; Sar = CNCC(=O)O
How the values were obtained:
Type in all cases: cell-based, human
[1] = system: SEQ ID NO:1 in HCT116 and A549 cells; experiment: SEQ ID NO:1 expression (qPCR, Western Blot) after drug treatment, wild-type p53 cells; settings: cells with wild-type p53 (HCT116 and A549); Doxorubicin 1 μM, Actinomycin D 1 nM, Nutlin-3a 10 μM
Procedure: (§1) FIG. 10. SEQ ID NO: 1 is induced by genotoxic stress in a p53-dependent manner. HCT116, HCT116 p53KO, A549 and BxPC3 were treated with Doxorubicin (1 μM) or Actinomycin D (1 nM) and Nutlin-3a (10 μM). SEQ ID NO: 1 transcriptional levels were measured by qPCR in A549 and HCT116 (A) and in HCT116 p53KO and BxPC-3 (B). mRNA expression is shown relative to the not treated control. SEQ ID NO: 1 protein was measured by Western Blot analysis using a custom-made anti-SEQ ID NO: 1 antibody in A549 and HCT116 (A) and in HCT116 p53KO and BxPC-3 (B). (C) Immunostaining showing the upregulation of SEQ ID NO: 1 in A549 cells using a custom-made anti-SEQ ID NO: 1 antibody upon Doxorubicin treatment.
(§2) Doxorubicin, Actinomycin D and Nutlin-3a were purchased from Sigma-Aldrich. Doxorubicin was used at 1 μM, Actinomycin D was used at […] and Nutlin-3a was used at 10 μM in drug treatment experiments.
(§3) Total RNA was extracted with Trizol® and treated with TURBO™ DNase following provider's recommendations. 1 μg of RNA was retrotranscribed using iScript™ cDNA Synthesis Kit (BioRad). Gene expression was analysed by quantitative real time PCR using PowerUp SYBR Green Master Mix (Thermo Fisher Scientific) in the 7900HT Fast Real-Time PCR System (Applied Biosystems). Cycle threshold (Ct) values were normalized to GAPDH.
(§4) Cells pellets (4-5*10^6 cells) were homogenized in medium-salt lysis buffer (150 mM NaCl, 50 mM Tris pH 8, 1% NP40 and protein inhibitors cocktail). 50 μg of protein was loaded per lane in a 12% acrylamide gel and electrophoresed in Tris-Glycine SDS Running Buffer. The following antibodies were used: Anti-HA-Tag (Abcam, 1:5000), Anti-p53 (Santa Cruz, 1:1000), Anti-p21 (Thermo Fisher, 1:1000), Anti-GAPDH (Thermo Fisher, 1:5000).

[2] = system: SEQ ID NO 3 in HCT116 p53 KO; experiment: SEQ ID NO: 3 mRNA levels by RT-qPCR after drug treatment in HCT116 p53 knock-out; settings: Nutlin3a 10 μM 48 h, Doxorubicin 1 μM 24 h
Procedure: FIG. 25. […] (A) HCT116 and HCT116 p53KO cells were treated with MDM2 inhibitor Nutlin3a (10 μM) during 48 h. SEQ ID NO: 3 transcriptional levels were tested by RT-qPCR. mRNA levels are normalized to untreated control (B) HCT116 and HCT116 p53KO cells were treated with genotoxic agent Doxorubicin (1 μM) during 24 h. SEQ ID NO: 3 mRNA levels were tested by RT-qPCR. mRNA levels are presented relative to GAPDH reference gene. Bars represent average of n=3 technical replicates±SD.
as §2, §3

[3] = system: SEQ ID NO:1 in HCT116 p53KO and BxPC-3 cells; experiment: SEQ ID NO:1 expression (qPCR, Western Blot) after drug treatment, p53 altered cells; settings: p53 status altered: HCT116 p53KO, BxPC-3 (mutant p53); Doxorubicin 1 μM, Actinomycin D 1 nM, Nutlin-3a 10 μM
Procedure: as §1, §2, §3, §4

[4] = system: SEQ ID NO 3 in HCT116; experiment: SEQ ID NO: 3 mRNA levels by RT-qPCR after drug treatment in HCT116; settings: Nutlin3a 10 μM 48 h, Doxorubicin 1 μM 24 h
Procedure: FIG. 25. […] (A) HCT116 and HCT116 p53KO cells were treated with MDM2 inhibitor Nutlin3a (10 μM) during 48 h. […] SEQ ID NO: 3 mRNA levels were tested by RT-qPCR. mRNA levels are presented relative to GAPDH reference gene. Bars represent average of n=3 technical replicates±SD.
as §2, §3

COc1ccc(C2=N[C@@H](c3ccc(Cl)cc3)[C@@H](c3ccc(Cl)cc3)N2C(=O)N2CCNC(=O)C2)c(OC(C)C)c1 [Nutlin-3a]
expression of SEQ ID NO:1 (mRNA and protein levels) [1]: transcriptional and translational upregulation | SEQ ID NO 3 transcriptional levels [2]: upregulation was impaired | expression of SEQ ID NO:1 (mRNA and protein levels) [3]: do not shown the same response | SEQ ID NO 3 transcriptional levels [4]: upregulated

Cc1c2oc3c(C)ccc(C(=O)N[C@@H]4C(=O)N[C@H](C(C)C)C(=O)N5CCC[C@H]5C(=O)N(C)CC(=O)N(C)[C@@H](C(C)C)C(=O)O[C@@H]4C)c3nc-2c(C(=O)N[C@@H]2C(=O)N[C@H](C(C)C)C(=O)N3CCC[C@H]3C(=O)N(C)CC(=O)N(C)[C@@H](C(C)C)C(=O)O[C@@H]2C)c(N)c1=O [Actinomycin D] (I: T[dV]P[Sar][NMeV] / II: T[dV]P[Sar][NMeV]; ester I:1-I:C, II:1-II:C; linker I:N-II:N via Actinocin(9to1))
expression of SEQ ID NO:1 (mRNA and protein levels) [1]: transcriptional and translational upregulation | expression of SEQ ID NO:1 (mRNA and protein levels) [3]: do not shown the same response

COc1cccc2c1C(=O)c1c(O)c3c(c(O)c1C2=O)C[C@@](O)(C(=O)CO)C[C@@H]3O[C@H]1C[C@H](N)[C@H](O)[C@H](C)O1 [Doxorubicin]
expression of SEQ ID NO:1 (mRNA and protein levels) [1]: transcriptional and translational upregulation | SEQ ID NO 3 transcriptional levels [2]: upregulation was impaired | expression of SEQ ID NO:1 (mRNA and protein levels) [3]: do not shown the same response | SEQ ID NO 3 transcriptional levels [4]: upregulated

— patent publication US11858972B2, “Micropeptides and uses thereof” (FUNDACIÓ PRIVADA INSTITUT D'INVESTIGACIÓ ONCOLÒGICA DE VALL …, priority 2018, dated 2024)
